{"source": "paper PMC8151892", "about": "“Partial Agonist Activity of Neonicotinoids on Rat Nicotinic Receptors: Consequences over Epinephrine Secretion and In Vivo Blood Pressure” (International Journal of Molecular Sciences, 2021)", "biological_target": "T1, α3β4 nicotinic acetylcholine receptor (α3 subunit) (Rattus norvegicus, UniProt P04757+P12392)", "T1 construct": "gene Chrna3; complete open reading frames of rat α3 and β4 subunits, RNA 1:1, Xenopus oocytes; with nAChR β4 subunit (Chrnb4)", "T1 sequence (P04757 26-499)": "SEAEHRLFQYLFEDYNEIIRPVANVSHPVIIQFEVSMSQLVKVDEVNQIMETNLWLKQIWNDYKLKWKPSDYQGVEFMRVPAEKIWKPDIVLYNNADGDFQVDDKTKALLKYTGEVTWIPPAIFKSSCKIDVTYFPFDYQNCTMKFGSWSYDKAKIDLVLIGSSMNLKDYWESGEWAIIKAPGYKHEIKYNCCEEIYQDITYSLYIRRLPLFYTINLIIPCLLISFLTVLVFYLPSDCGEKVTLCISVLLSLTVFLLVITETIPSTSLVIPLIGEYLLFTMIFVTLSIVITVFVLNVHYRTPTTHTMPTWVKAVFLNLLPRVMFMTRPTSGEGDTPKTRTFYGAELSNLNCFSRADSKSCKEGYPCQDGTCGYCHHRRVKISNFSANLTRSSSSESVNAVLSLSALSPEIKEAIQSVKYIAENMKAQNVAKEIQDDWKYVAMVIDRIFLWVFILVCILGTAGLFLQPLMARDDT", "T1 sequence (P12392 21-495)": "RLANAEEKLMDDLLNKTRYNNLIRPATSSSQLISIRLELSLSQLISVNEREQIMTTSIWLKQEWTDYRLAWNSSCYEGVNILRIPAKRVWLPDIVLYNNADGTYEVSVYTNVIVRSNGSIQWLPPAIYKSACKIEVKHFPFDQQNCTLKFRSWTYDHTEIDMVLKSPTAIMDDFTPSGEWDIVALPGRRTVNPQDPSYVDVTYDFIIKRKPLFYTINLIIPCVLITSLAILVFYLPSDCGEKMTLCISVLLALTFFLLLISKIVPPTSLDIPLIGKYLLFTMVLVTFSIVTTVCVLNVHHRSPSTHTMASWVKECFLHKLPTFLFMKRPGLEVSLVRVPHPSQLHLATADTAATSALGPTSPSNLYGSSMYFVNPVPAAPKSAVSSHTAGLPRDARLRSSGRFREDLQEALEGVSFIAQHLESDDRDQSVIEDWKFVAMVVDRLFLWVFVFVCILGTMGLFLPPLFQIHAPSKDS", "test": "two-electrode voltage clamp in Xenopus oocytes (partial agonist)", "type": "cell-based", "data": [{"molecule": "CN/C(=N\\[N+](=O)[O-])NCc1cnc(Cl)s1", "note": "[CLO, clothianidin]", "values": [{"measurement": "EC50", "value": "8.39 ± 0.77", "unit": "mM"}]}]}
